How the values were obtained:
[1] = system: islet of Langerhans isolated from a pancreatic β cell-specific Cdkal1-deficient mouse; assay: Secondary screening: insulin secretion experiment by glucose stimulation; assay type: cell-based; design: insulin secretion under low-concentration (2.8 mM) and high-concentration (16.7 mM) glucose stimulation / concentration of insulin secreted into the Ringer solution: unit of the concentration uncertain
Source text: The islet of Langerhans was isolated from a pancreatic β cell-specific Cdkal1-deficient mouse (see non-patent document 11) according to the literature (Gotoh M., et al., Transplantation, 1987, 43 (5), p. 725-730). The chest of the mouse was opened under ether anesthesia, and the common bile duct was peeled off. The pancreas swollen by the gradual injection of a collagenase solution (320 U/mL, manufactured by Sigma-Aldrich Corp.) was excised. The pancreas containing collagenase was digested for 30 minutes in a water bath of 37° C. and then dispersed with a pipette. The islet of Langerhans was isolated using a concentration gradient of a Ficoll solution (manufactured by Amersham Pharmacia Biotech Inc.). The islet of Langerhans was incubated for 30 minutes while kept at 37° C. in a Ringer solution (119 mM sodium chloride, 4.74 mM potassium chloride, 1.19 mM monosodium dihydrogen phosphate, 25 mM sodium bicarbonate, 10 mM HEPES, 2.54 mM calcium chloride, 1.19 mM magnesium chloride, and 0.2% BSA) saturated with a mixed gas of 95% O2 and 5% CO2.
Each low-molecular compound found positive in the primary screening was dissolved in DMSO, and this solution was added at a final concentration of 10 mM to a Ringer solution containing glucose to prepare a Ringer solution. A Ringer solution supplemented only with DMSO was prepared as a control.
The isolated mouse islet of Langerhans was first cultured for 30 minutes in a Ringer solution containing a low concentration (2.8 mM) of glucose. Then, the Ringer solution was replaced with a Ringer solution containing the low-molecular compound and the low concentration of glucose. After 30 minutes, the Ringer solution was recovered, and a Ringer solution containing the low-molecular compound and a high concentration (16.7 mM) of glucose was subsequently added thereto. After 30 minutes, the Ringer solution was recovered. The amount of insulin released into the Ringer solution was detected using an insulin detection kit (Libs Insulin-Mouse (S type), manufactured by Shibayagi Co., Ltd) according to the protocol of the kit.

[2] = system: pancreatic β cell-specific Cdkal1-deficient mouse; assay: Glucose tolerance after long-term (14 days) administration; assay type: in vivo; settings: 1 mg/kg transabdominally once a day over 14 days, glucose 1 g/kg 36 hours after last dose; versus DMSO administration group
Procedure: Each low-molecular compound found positive in the screening was transabdominally injected once a day over 14 days at a dose of 1 mg/kg to a pancreatic β cell-specific Cdkal1-deficient mouse. A Cdkal1-deficient mouse was prepared as a control by the injection of saline containing DMSO. Finally, glucose was transabdominally injected at a dose of 1 g/kg to all of the mice 36 hours after the administration of the low-molecular compound. Blood was collected (5 μL) from the tail vein every 15 minutes from immediately after the administration of glucose. The blood glucose level in the mouse blood was measured using Accu-Chek AVIVA Nano (manufactured by F. Hoffmann-La Roche, Ltd.). The statistical test was conducted by repeated measure of two-way ANOVA.

[3] = system: E. coli harboring pACYCDuet-1-Phe; assay: Primary screening: dual luciferase assay of translation accuracy (frameshift mistranslation reporter); assay type: cell-based; settings: versus DMSO control; for relative translation accuracy with the translation accuracy of the control defined as 1: compound at final concentration of 10 μM, shake culture 1 hour; for improvement of translation accuracy as compared with the control (in words): existing therapeutic agents for diabetes, 10 μM
Source text: The vector map of the prepared plasmid pACYCDuet-1-Phe (SEQ ID NO: 1) is shown in the left diagram of FIG. 1. The phenylalanine codon TTT was designed as NNN. When translation takes place according to the normal reading frame, the stop codon TAA appears immediately after TTT so that the sequence is not translated into firefly luciferase. On the other hand, if mistranslation occurs in TTT so as to skip one T, the stop codon is circumvented so that the sequence is correctly translated into firefly luciferase. This means that the higher the accuracy of translation is, the lower the fluorescence intensity of firefly luciferase is.
Renilla luciferase gene is also cloned into this plasmid as a control.
The E. coli harboring pACYCDuet-1-Phe was cultured overnight at 37° C. using 100 mL of a culture medium. After confirmation that OD550 reached 0.4 to 1, 1 mL of the culture medium was dispensed, and each low-molecular compound was added thereto at a final concentration of 10 μM. After shake culture for 1 hour, the E. coli was recovered and lysed by suspension in 10 mM Tris-HCl (pH 7.4), 1 mM magnesium chloride, and 0.1 mg/mL lysozyme (manufactured by Wako Pure Chemical Industries, Ltd.).
The activity of the firefly luciferase and the Renilla luciferase was measured using Dual-Luciferase Reporter Assay System (manufactured by Promega Corp.). To 5 μL of the E. coli lysate, 50 μL of an assay solution for the firefly luciferase was added for the measurement. Then, 50 μL of an assay solution for the Renilla luciferase was added thereto for the measurement. An E. coli lysate supplemented only with DMSO was prepared as a control.
The luminescence intensity of the firefly luciferase was corrected against that of the Renilla luciferase by use of the equation given below. This series of experimental approaches is plotted in FIG. 1.
Relative luminescence intensity=Firefly luciferase/Renilla luciferase
Relative translation accuracy=Relative luminescence intensity (from the addition of only DMSO)/Relative luminescence intensity (in the presence of the compound)

[4] = system: pancreatic β cell-specific Cdkal1-deficient mouse; assay: Tertiary screening: glucose tolerance after single administration; assay type: in vivo; settings: 1 mg/kg transabdominally, glucose 1 g/kg after 30 minutes, versus saline administration group
Procedure: A pancreatic β cell-specific Cdkal1-deficient mouse and a wild-type mouse were each fasted overnight. Then, eperisone was transabdominally injected at a dose of 1 mg/kg to each mouse. Each control individual was prepared by the transabdominal injection of saline to each of a pancreatic β cell-specific Cdkal1-deficient mouse and a wild-type mouse. After 30 minutes, glucose was transabdominally injected at a dose of 1 g/kg to all of these mice. Blood was collected (5 μL) every 15 minutes from immediately after the administration of glucose. The blood glucose level in the mouse blood was measured using Accu-Chek AVIVA Nano (manufactured by F. Hoffmann-La Roche, Ltd.). The statistical test was conducted by repeated measure of two-way ANOVA.

`CNCCC(Oc1ccc(C(F)(F)F)cc1)c1ccccc1` (stereo not shown) [fluoxetine] was tested, and the “concentration of insulin secreted into the Ringer solution” value ([1]; low-concentration (2.8 mM) glucose stimulation, compound at final concentration of 10 (unit uncertain)) was “significantly improve insulin secretion”, the “blood glucose level after glucose administration” value (“blood glucose level” below) [2] was “significantly decreased blood glucose level” and the “relative translation accuracy with the translation accuracy of the control defined as 1” value [3] was “approximately 1.5 times”.
In the case of `CN(C)C(=N)N=C(N)N` [metformin], the “improvement of translation accuracy as compared with the control (in words)” value [3] is reported as “none of the existing therapeutic agents for diabetes were shown to significantly improve translation accuracy”.
`CCc1ccc(C(=O)C(C)CN2CCCCC2)cc1` (stereo not shown) [eperisone] was tested, and the “insulin secretion under low-concentration (2.8 mM) and high-concentration (16.7 mM) glucose stimulation” value ([1]; compound at final concentration of 10 (unit uncertain) in Ringer solution, 30 minutes each) was “accelerate insulin secretion only under the high-concentration glucose stimulation”, the “relative amount of insulin secreted compared with glibenclamide” value ([1]; high-concentration (16.7 mM) glucose stimulation, glibenclamide defined as 1) was “accelerate insulin secretion more highly than glibenclamide” and the “blood glucose level” value [2] was “significantly decreased blood glucose level”. The “blood glucose level” value [4] was “significantly decreased blood glucose level”.
In the case of `COc1ccc(Cl)cc1C(=O)NCCc1ccc(S(=O)(=O)NC(=O)NC2CCCCC2)cc1` [glibenclamide], the “improvement of translation accuracy as compared with the control (in words)” value [3] is reported as “none of the existing therapeutic agents for diabetes were shown to significantly improve translation accuracy”.
For elvitegravir, the “relative translation accuracy with the translation accuracy of the control defined as 1” value [3] was “approximately 8 times”.
